Article PMC5218480 (PLoS ONE, 2017)

System: MV-4-11 cells
Experiment: Gene expression microarray analysis (Affymetrix PrimeView) and GSEA
Type: cell-based, human
Design: RFU PODN (11730768_x_at) / Fold change /veh PODN (11730768_x_at) / RFU LINC00158 (11744669_a_at) / Fold change /veh LINC00158 (11744669_a_at) / RFU DUSP10 (11751237_a_at) / Fold change /veh DUSP10 (11751237_a_at) / RFU ID3 (11757404_x_at) / Fold change /veh ID3 (11757404_x_at) / RFU PLEKHG5 (11737974_s_at) / Fold change /veh PLEKHG5 (11737974_s_at) / RFU LRRC4B (11730491_at) / Fold change /veh LRRC4B (11730491_at) / RFU GIMAP4 (11747438_a_at) / Fold change /veh GIMAP4 (11747438_a_at) / RFU KRT8 (11758183_x_at) / Fold change /veh KRT8 (11758183_x_at) / RFU CNN1 (11734310_a_at) / Fold change /veh CNN1 (11734310_a_at) / RFU VPS37D (11726825_at) / Fold change /veh VPS37D (11726825_at) / RFU C10orf10 (11716522_x_at) / Fold change /veh C10orf10 (11716522_x_at) / RFU KIR2DL2 /// KIR2DL4 /// KIR2DL5A /// KIR2DL5B /// KIR2DS1 /// KIR2DS2 /// KIR2DS3 /// KIR2DS4 /// KIR3DL3 /// KIR3DL3 /// KIR3DS1 (11738374_at) / Fold change /veh KIR2DL2 /// KIR2DL4 /// KIR2DL5A /// KIR2DL5B /// KIR2DS1 /// KIR2DS2 /// KIR2DS3 /// KIR2DS4 /// KIR3DL3 /// KIR3DL3 /// KIR3DS1 (11738374_at) / RFU C1QL1 (11718748_at) / Fold change /veh C1QL1 (11718748_at) / RFU TMPRSS4 (11747572_a_at) / Fold change /veh TMPRSS4 (11747572_a_at) / RFU HAMP (11756126_x_at) / Fold change /veh HAMP (11756126_x_at) / RFU RNFT2 (11725882_a_at) / Fold change /veh RNFT2 (11725882_a_at) / RFU NR4A2 (11747474_a_at) / Fold change /veh NR4A2 (11747474_a_at) / RFU ABCC12 (11746883_a_at) / Fold change /veh ABCC12 (11746883_a_at) / RFU TMEM136 (11760407_x_at) / Fold change /veh TMEM136 (11760407_x_at) / RFU CLDN22 /// WWC2 (11732394_at) / Fold change /veh CLDN22 /// WWC2 (11732394_at) / RFU HLA-DPB1 (11760878_x_at) / Fold change /veh HLA-DPB1 (11760878_x_at) / RFU SPINT1 (11716480_a_at) / Fold change /veh SPINT1 (11716480_a_at) / RFU GAP43 (11754022_s_at) / Fold change /veh GAP43 (11754022_s_at) / RFU A4GNT (11735810_at) / Fold change /veh A4GNT (11735810_at) / RFU PRB3 (11715151_x_at) / Fold change /veh PRB3 (11715151_x_at) / RFU TUBB4B (11761932_at) / Fold change /veh TUBB4B (11761932_at) / RFU CAPN14 (11732068_a_at) / Fold change /veh CAPN14 (11732068_a_at) / RFU TMCC2 (11721928_a_at) / Fold change /veh TMCC2 (11721928_a_at) / RFU IRGQ (11745062_a_at) / Fold change /veh IRGQ (11745062_a_at) / RFU FAM174B (11720279_a_at) / Fold change /veh FAM174B (11720279_a_at) / RFU TMPRSS4 (11748680_a_at) / Fold change /veh TMPRSS4 (11748680_a_at) / RFU FAM212B (11763350_a_at) / Fold change /veh FAM212B (11763350_a_at) / RFU PLEKHG5 (11743358_a_at) / Fold change /veh PLEKHG5 (11743358_a_at) / RFU ZSCAN30 (11745921_a_at) / Fold change /veh ZSCAN30 (11745921_a_at) / RFU CMKLR1 (11741424_a_at) / Fold change /veh CMKLR1 (11741424_a_at) / RFU LOC101060620 /// MAPK8IP1 (11723275_at) / Fold change /veh LOC101060620 /// MAPK8IP1 (11723275_at) / RFU SPTSSB (11747773_x_at) / Fold change /veh SPTSSB (11747773_x_at) / RFU PRSS12 (11739890_at) / Fold change /veh PRSS12 (11739890_at) / RFU BIN1 (11741810_x_at) / Fold change /veh BIN1 (11741810_x_at) / RFU WNT11 (11732464_a_at) / Fold change /veh WNT11 (11732464_a_at) / RFU C10orf10 (11716521_a_at) / Fold change /veh C10orf10 (11716521_a_at) / RFU C5orf56 (11738089_at) / Fold change /veh C5orf56 (11738089_at) / RFU CYB561 (11721691_x_at) / Fold change /veh CYB561 (11721691_x_at) / RFU ANKRD19P (11752326_a_at) / Fold change /veh ANKRD19P (11752326_a_at) / RFU OR2T12 /// OR2T33 /// OR2T8 (11738714_s_at) / Fold change /veh OR2T12 /// OR2T33 /// OR2T8 (11738714_s_at) / RFU VCAN (11748164_a_at) / Fold change /veh VCAN (11748164_a_at) / RFU JSRP1 (11732532_at) / Fold change /veh JSRP1 (11732532_at) / RFU KRTAP10-11 (11738290_x_at) / Fold change /veh KRTAP10-11 (11738290_x_at) / RFU MYO3A (11730013_a_at) / Fold change /veh MYO3A (11730013_a_at) / RFU EBF3 (11725865_a_at) / Fold change /veh EBF3 (11725865_a_at) / RFU CAMK2N1 (11719241_x_at) / Fold change /veh CAMK2N1 (11719241_x_at) / RFU C5orf56 (11738088_a_at) / Fold change /veh C5orf56 (11738088_a_at) / RFU OLFML3 (11715873_a_at) / Fold change /veh OLFML3 (11715873_a_at) / RFU LOC100653217 /// NTM (11731650_a_at) / Fold change /veh LOC100653217 /// NTM (11731650_a_at) / RFU MAPK11 (11762145_a_at) / Fold change /veh MAPK11 (11762145_a_at) / RFU FIZ1 (11724087_x_at) / Fold change /veh FIZ1 (11724087_x_at) / RFU OASL (11726364_x_at) / Fold change /veh OASL (11726364_x_at) / RFU SOX15 (11748057_x_at) / Fold change /veh SOX15 (11748057_x_at) / RFU CD79A (11719716_a_at) / Fold change /veh CD79A (11719716_a_at) / RFU HIST1H1D (11736915_at) / Fold change /veh HIST1H1D (11736915_at) / RFU CASKIN2 (11723855_a_at) / Fold change /veh CASKIN2 (11723855_a_at) / RFU LOC730098 (11760151_x_at) / Fold change /veh LOC730098 (11760151_x_at) / RFU OR4N2 (11742367_at) / Fold change /veh OR4N2 (11742367_at) / RFU PRRT2 (11749266_a_at) / Fold change /veh PRRT2 (11749266_a_at) / RFU SNX32 (11753110_a_at) / Fold change /veh SNX32 (11753110_a_at) / RFU CDHR5 (11726645_a_at) / Fold change /veh CDHR5 (11726645_a_at) / RFU RCAN1 (11760418_a_at) / Fold change /veh RCAN1 (11760418_a_at) / RFU FAM167A (11723789_a_at) / Fold change /veh FAM167A (11723789_a_at) / RFU FAM26E (11764081_at) / Fold change /veh FAM26E (11764081_at) / RFU ISYNA1 (11749810_s_at) / Fold change /veh ISYNA1 (11749810_s_at) / RFU ACY1 (11761880_at) / Fold change /veh ACY1 (11761880_at) / RFU 11764098_at / Fold change /veh 11764098_at / RFU SAMD14 (11745864_x_at) / Fold change /veh SAMD14 (11745864_x_at) / RFU NPB (11741838_a_at) / Fold change /veh NPB (11741838_a_at) / RFU TMPRSS6 (11731388_a_at) / Fold change /veh TMPRSS6 (11731388_a_at) / RFU KRTAP10-2 (11738614_at) / Fold change /veh KRTAP10-2 (11738614_at) / RFU ARHGAP8 /// PRR5-ARHGAP8 (11727945_x_at) / Fold change /veh ARHGAP8 /// PRR5-ARHGAP8 (11727945_x_at) / RFU KRTAP5-7 /// NADSYN1 (11734609_at) / Fold change /veh KRTAP5-7 /// NADSYN1 (11734609_at) / RFU RASL12 (11751679_a_at) / Fold change /veh RASL12 (11751679_a_at) / RFU CDKN2B (11736163_a_at) / Fold change /veh CDKN2B (11736163_a_at) / RFU PRF1 (11729649_at) / Fold change /veh PRF1 (11729649_at) / RFU, ZNF638 /// ZNF638-IT1 / Fold change vs veh, ZNF638 /// ZNF638-IT1 / RFU, PANK3 / Fold change vs veh, PANK3 / RFU, SH3YL1 / Fold change vs veh, SH3YL1 / RFU, ZEB2 / Fold change vs veh, ZEB2 / RFU, NRIP1 / Fold change vs veh, NRIP1 / RFU, PTTG1IP / Fold change vs veh, PTTG1IP / RFU, CAPN2 / Fold change vs veh, CAPN2 / RFU, MED14 / Fold change vs veh, MED14 / RFU, SNORA58 / Fold change vs veh, SNORA58 / RFU, C1orf63 / Fold change vs veh, C1orf63 / RFU, LRRFIP1 / Fold change vs veh, LRRFIP1 / RFU, NDUFAF7 / Fold change vs veh, NDUFAF7 / RFU, SLC12A2 / Fold change vs veh, SLC12A2 / RFU, IBTK / Fold change vs veh, IBTK / RFU, ESF1 / Fold change vs veh, ESF1 / Fold change vs veh, TMEM50B / RFU, TAOK1 / Fold change vs veh, TAOK1 / RFU, ACBD3 / Fold change vs veh, ACBD3 / RFU, TMA16 / Fold change vs veh, TMA16 / RFU, RWDD3 / Fold change vs veh, RWDD3 / RFU, BCAT1 / Fold change vs veh, BCAT1 / RFU, EDEM3 / Fold change vs veh, EDEM3 / RFU, TMEM33 / Fold change vs veh, TMEM33 / RFU, WDR75 / Fold change vs veh, WDR75 / RFU, AHCTF1 / Fold change vs veh, AHCTF1 / RFU, TFRC / Fold change vs veh, TFRC / RFU, ZDHHC17 / Fold change vs veh, ZDHHC17 / RFU, NOM1 / Fold change vs veh, NOM1 / RFU, ARL8B / Fold change vs veh, ARL8B / RFU, ZBTB11 / Fold change vs veh, ZBTB11 / RFU, TAMM41 / Fold change vs veh, TAMM41 / RFU, KIAA1704 /// LOC100996395 / Fold change vs veh, KIAA1704 /// LOC100996395 / RFU, ING1 / Fold change vs veh, ING1 / RFU, TRMT61B / Fold change vs veh, TRMT61B / RFU, FUBP3 / Fold change vs veh, FUBP3 / RFU, TP53 / Fold change vs veh, TP53 / RFU, TNKS2 / Fold change vs veh, TNKS2 / RFU, ZFP14 / Fold change vs veh, ZFP14 / RFU, ACTR2 / Fold change vs veh, ACTR2 / RFU, PPP3R1 / Fold change vs veh, PPP3R1 / RFU, PIK3R1 / Fold change vs veh, PIK3R1 / RFU, HNRNPA1 / Fold change vs veh, HNRNPA1 / RFU, RNF170 / Fold change vs veh, RNF170 / RFU, ZNF28 / Fold change vs veh, ZNF28 / RFU, RNGTT / Fold change vs veh, RNGTT / RFU, OGT / Fold change vs veh, OGT / RFU, BRD1 / Fold change vs veh, BRD1 / RFU, MARS / Fold change vs veh, MARS / RFU, ZNF655 / Fold change vs veh, ZNF655 / RFU, FAHD1 / Fold change vs veh, FAHD1 / RFU, BDP1 / Fold change vs veh, BDP1 / RFU, LRRCC1 / Fold change vs veh, LRRCC1 / RFU, ARID1A / Fold change vs veh, ARID1A / RFU, ZNF146 / Fold change vs veh, ZNF146 / RFU, ZNF330 / Fold change vs veh, ZNF330 / RFU, GPN3 / Fold change vs veh, GPN3 / RFU, C9orf123 / Fold change vs veh, C9orf123 / RFU, N4BP2L2 / Fold change vs veh, N4BP2L2 / RFU, ARFIP1 / Fold change vs veh, ARFIP1 / RFU, FAM179B / Fold change vs veh, FAM179B / RFU, BCL10 / Fold change vs veh, BCL10 / RFU, UHRF1BP1L / Fold change vs veh, UHRF1BP1L / RFU, BET1 / Fold change vs veh, BET1 / RFU, CNOT2 / Fold change vs veh, CNOT2 / RFU, ZNF268 / Fold change vs veh, ZNF268 / Fold change vs veh, ZNF507 / RFU, DGCR2 / Fold change vs veh, DGCR2 / RFU, WDSUB1 / Fold change vs veh, WDSUB1 / Fold change vs veh, HSP90B1 /// MIR3652 / RFU, ADSS / Fold change vs veh, ADSS / RFU, GK / Fold change vs veh, GK / RFU, ZNF148 / Fold change vs veh, ZNF148 / RFU, TAF9 / Fold change vs veh, TAF9 / RFU, SLC1A5 / Fold change vs veh, SLC1A5 / RFU, SLMO2 / Fold change vs veh, SLMO2 / RFU, ABCC4 / Fold change vs veh, ABCC4 / RFU, LOC101060439 /// RAP1B / Fold change vs veh, LOC101060439 /// RAP1B / RFU, RFX7 / Fold change vs veh, RFX7 / RFU, GTPBP10 / Fold change vs veh, GTPBP10 / RFU, CNEP1R1 / Fold change vs veh, CNEP1R1 / RFU, BIVM-ERCC5 /// ERCC5 / Fold change vs veh, BIVM-ERCC5 /// ERCC5 / RFU, ILF3 / Fold change vs veh, ILF3 / RFU 11762660_at / Fold change /veh 11762660_at / RFU VCAN (11757783_s_at) / Fold change /veh VCAN (11757783_s_at) / RFU DDX43 (11728927_at) / Fold change /veh DDX43 (11728927_at) / RFU KRT8 (11758188_x_at) / Fold change /veh KRT8 (11758188_x_at) / RFU NKD1 (11759106_at) / Fold change /veh NKD1 (11759106_at) / RFU SRD5A1 (11742802_a_at) / Fold change /veh SRD5A1 (11742802_a_at) / RFU TPSAB1 /// TPSB2 (11721975_s_at) / Fold change /veh TPSAB1 /// TPSB2 (11721975_s_at) / RFU GSTM3 (11746129_a_at) / Fold change /veh GSTM3 (11746129_a_at) / RFU IL23R (11737362_x_at) / Fold change /veh IL23R (11737362_x_at) / RFU TMEM51 (11727254_a_at) / Fold change /veh TMEM51 (11727254_a_at) / RFU PIWIL2 (11732686_x_at) / Fold change /veh PIWIL2 (11732686_x_at) / RFU ORM1 (11744905_x_at) / Fold change /veh ORM1 (11744905_x_at) / RFU CCDC152 (11743942_at) / Fold change /veh CCDC152 (11743942_at) / RFU ECM1 (11717891_a_at) / Fold change /veh ECM1 (11717891_a_at) / RFU IL23R (11748794_a_at) / Fold change /veh IL23R (11748794_a_at) / RFU TNFAIP8L3 (11732012_x_at) / Fold change /veh TNFAIP8L3 (11732012_x_at) / RFU MBOAT4 (11741988_at) / Fold change /veh MBOAT4 (11741988_at) / RFU 11764193_at / Fold change /veh 11764193_at / RFU TMEM53 (11763286_at) / Fold change /veh TMEM53 (11763286_at) / RFU MAGEB2 (11727129_at) / Fold change /veh MAGEB2 (11727129_at) / RFU TMEM200A (11744735_a_at) / Fold change /veh TMEM200A (11744735_a_at) / RFU CCDC152 (11751479_a_at) / Fold change /veh CCDC152 (11751479_a_at) / RFU FAM211A (11726209_a_at) / Fold change /veh FAM211A (11726209_a_at) / RFU RGS16 (11746705_a_at) / Fold change /veh RGS16 (11746705_a_at) / RFU VCAN (11755009_s_at) / Fold change /veh VCAN (11755009_s_at) / RFU RHOB (11743442_s_at) / Fold change /veh RHOB (11743442_s_at) / RFU RGS16 (11720943_a_at) / Fold change /veh RGS16 (11720943_a_at) / RFU RGS16 (11720944_at) / Fold change /veh RGS16 (11720944_at) / RFU, VPS4B / Fold change vs veh, VPS4B / RFU, CREB1 / Fold change vs veh, CREB1 / RFU, DNAJC13 / Fold change vs veh, DNAJC13 / RFU, GNAQ / Fold change vs veh, GNAQ / RFU, CDK5R1 / Fold change vs veh, CDK5R1 / RFU, ZRANB3 / Fold change vs veh, ZRANB3 / RFU, CUL4A / Fold change vs veh, CUL4A / RFU, CCNY / Fold change vs veh, CCNY / RFU, UFL1 / Fold change vs veh, UFL1 / RFU, COG3 / Fold change vs veh, COG3 / RFU, DIAPH2 / Fold change vs veh, DIAPH2 / RFU, SKA2 / Fold change vs veh, SKA2 / RFU, AFF3 / Fold change vs veh, AFF3 / RFU, LMF1 / Fold change vs veh, LMF1 / RFU, IPO11 / Fold change vs veh, IPO11 / RFU, DFFB / Fold change vs veh, DFFB / RFU, FOXP1 / Fold change vs veh, FOXP1 / RFU, CARD8 / Fold change vs veh, CARD8 / RFU, STRN3 / Fold change vs veh, STRN3 / RFU, ADK / Fold change vs veh, ADK / RFU, RASSF2 / Fold change vs veh, RASSF2 / RFU, WIPF1 / Fold change vs veh, WIPF1 / RFU, LARP1B / Fold change vs veh, LARP1B / RFU, RASA1 / Fold change vs veh, RASA1 / RFU, RB1 / Fold change vs veh, RB1 / RFU, PPFIA1 / Fold change vs veh, PPFIA1 / RFU, MAT2A / Fold change vs veh, MAT2A / RFU, CCT5 / Fold change vs veh, CCT5 / RFU, WDR92 / Fold change vs veh, WDR92 / RFU, CUX1 / Fold change vs veh, CUX1 / RFU, TTC7A / Fold change vs veh, TTC7A / RFU, TMEM135 / Fold change vs veh, TMEM135 / RFU, DEPTOR / Fold change vs veh, DEPTOR / RFU, CPM / Fold change vs veh, CPM / RFU, DNAJB6 / Fold change vs veh, DNAJB6 / RFU, CACNA2D3 / Fold change vs veh, CACNA2D3 / RFU, DTX4 / Fold change vs veh, DTX4 / RFU, TFCP2 / Fold change vs veh, TFCP2 / RFU, GMCL1 /// GMCL1P1 / Fold change vs veh, GMCL1 /// GMCL1P1 / RFU, AEBP2 / Fold change vs veh, AEBP2 / RFU, SNHG1 /// SNORD22 /// SNORD25 /// SNORD26 /// SNORD27 /// SNORD28 /// SNORD29 /// SNORD31 / Fold change vs veh, SNHG1 /// SNORD22 /// SNORD25 /// SNORD26 /// SNORD27 /// SNORD28 /// SNORD29 /// SNORD31 / Fold change (Aza/veh), C12orf56 (ProbeSet 11735607_a_at) / Fold change (ACY-1035/veh), C12orf56 (ProbeSet 11735607_a_at) / Fold change (Aza/veh), FGFR1OP (ProbeSet 11751329_s_at) / Fold change (ACY-1035/veh), FGFR1OP (ProbeSet 11751329_s_at) / Fold change (Aza/veh), VPS36 (ProbeSet 11739960_a_at) / Fold change (ACY-1035/veh), VPS36 (ProbeSet 11739960_a_at) / RFU SYPL1 (11715823_x_at) / Fold change /veh SYPL1 (11715823_x_at) / RFU IGFBP7 (11715501_s_at) / Fold change /veh IGFBP7 (11715501_s_at) / RFU REEP3 (11722064_at) / Fold change /veh REEP3 (11722064_at) / RFU IGLL1 (11728026_x_at) / Fold change /veh IGLL1 (11728026_x_at): dose or concentration left out as unconfirmed
Details: MV-4-11 cells, 48 hours

SMILES: Nc1ncn([C@@H]2O[C@H](CO)[C@@H](O)[C@H]2O)c(=O)n1 [azacitidine]
- Fold change /veh C10orf10 (11716522_x_at): 1.15
